Source: patent US10815275B2, “Antimicrobial peptoids with improved selectivity and use thereof” (priority 2018, dated 2020)
In brackets after ≈: the same amount, converted by molar mass. Non-standard residues stand in square brackets, D forms with d. Residues, ends and D or L forms follow the SMILES beside them. Nspe = C[C@H](NCC(=O)O)c1ccccc1; Nphe = O=C(O)CNCc1ccccc1; Nlys = NCCCCNCC(=O)O

Assays:
E. coli strain DH5α = assay: Antimicrobial activity of peptoids with altered cationic residues, MIC; assay type: cell-based; details: LB medium, 18 h
Experimental: (§1) In order to measure antimicrobial activity of the peptoids, Gram-positive B. subtilis or Gram-negative E. coli strain DH5α was treated with Peptoid NOS. 1, 18 to 23, and the peptide Pexiganan, and minimum inhibitory concentrations were measured. Peptoid NOS. 1 and 2, and the peptide Pexiganan are already known antimicrobial peptoids and peptides, and were used for the purpose of making a comparison with novel peptoids in terms of antimicrobial activity.
(§2) Specifically, B. subtilis or E. coli DHS a was inoculated into LB liquid medium, and cultured at a temperature of 37° C. for 18 hours. Thereafter, the bacteria were diluted with LB medium so that each bacterial number was 2×10^5 colony-forming units (CFU) per 1 mL, and dispensed into 96-well microtiter plates at 100 μL each. The peptoid, which is 2-fold serially diluted using sterile water, was added to each well at 100 μL each. The plates were incubated at a temperature of 37° C. for 18 hours.
(§3) Thereafter, absorbance was measured at a wavelength of 600 nm using a microplate reader (Bio-Rad). The lowest peptoid concentration that completely suppresses growth of microorganisms was measured by a minimum inhibitory concentration (MIC), and the measurement results are shown in Table 12 below. Each of the minimum inhibitory concentration values was calculated as an average value of numerical values obtained through three independent experiments.

in vitro = assay type: cell-based; details: human
Experimental: In order to determine whether the peptoids were cytotoxic against human cell lines, […] cell line (Korean Cell Line Bank) which is a human lung cell line was cultured in a DMEM (Dulbecco's modified Eagle's medium) culture solution containing 10% (v/v) fetal bovine serum (FBS) at 5% CO2 and a temperature of 37° C. 100 μL of DMEM medium was dispensed into each well of a 96-well microtiter plate so that the number of cells was 1.3×10^4, and then incubated overnight at a temperature of 37° C. in a 5% CO2 incubator. In this case, a DMEM medium was used as a negative control. Thereafter, the peptoid which is 2-fold serially diluted using sterile water was added to each well, and then incubated for 24 hours.
After incubation, 20 μL of an MTS solution [3-(4,5-dimethylthiazol-2-yl)-5-(3-carboxymethoxyphenyl)-2-(4-sulfophenyl)-2H-tetrazolium, inner salt; MTS] was added thereto and incubated at a temperature of 37° C. for 4 hours. Thereafter, % survival was calculated by measuring absorbance at a wavelength of 490 nm using an ELISA reader. The % survival was calculated as a percentage obtained by dividing the absorbance value for a well-treated with the peptoid by the absorbance value for a well containing control cells which had not been treated with the peptoid.

B. subtilis = assay type: cell-based; details: 18 h
Experimental: as §1, §2, §3

red blood cells = assay: Hemolytic activity on red blood cells; assay type: cell-based, mouse
Experimental: In order to identify, through red blood cell hemolytic activity in mice, whether the peptoids synthesized in Preparation Example 1 are cytotoxic, red blood cells isolated from 10 mL of mouse blood were washed three times with phosphate-buffered saline (PBS, mixed solution of 35 mM phosphate buffer/150 mM NaCl, pH 7.4), and then centrifuged at a centrifugal force of 1,000 ×g for 10 minutes. A 10% (v/v) red blood cell solution diluted with PBS was dispensed into a 96-well microtiter plate at 150 μL each, and then a peptide solution was added at 50 μL each. Thereafter, the 96-well microtiter plate was incubated at a temperature of 37° C. for 1 hour.
The incubated 96-well microtiter plate was centrifuged at a centrifugal force of 1,000×g for 5 minutes. Thereafter, supernatant was taken at 100 μL each and transferred to a new 96-well microtiter plate. Then, absorbance at a wavelength of 540 nm was measured (Table 6).
In this case, a value obtained in a case of being treated with 0.1% (v/v) Triton X-100 was set as 100% hemolysis, and hemolytic activity (degree of cell destruction) of the peptoids was calculated using the following Equation 1. In the Equation 1, A is absorbance of the peptoid solution at a wavelength of 540 nm, B is absorbance of 0.1% Triton X-100 at a wavelength of 540 nm, and C is absorbance of the PBS solution at a wavelength of 540 nm. In this case, Peptoid NO. […] Degree of cell destruction (% hemolysis)=(A−C)/(B−C)[…] [Equation 1]
In Table 6, HD10 means a peptoid concentration which causes 10% hemolysis of red blood cells, and HD50 means a peptoid concentration which causes 50% hemolysis of red blood cells. In addition, Hmax is a hemolysis rate (%) at 200 μM which is the highest peptoid concentration used in the experiment.
Hemolytic activity of Peptoid NOS. 1, 18 to 23, and the peptide Pexiganan was measured in the same manner as in Experimental Example 2.

E. coli = assay: Selectivity analysis, HD10 divided by MIC for E. coli; details: HD10 of Table 6 divided by MIC for E. coli ATCC25922
Experimental: In order to identify changes in selectivity depending on alteration of degree of folding in helical structure of peptoids, selectivity of each peptoid was calculated using the resultant values measured in the Experimental Examples 1 and 2. The selectivity was obtained by dividing the HD10 value by the minimum inhibitory concentration for E. coli (Table 8).

P. aeruginosa (PA01) = assay: MIC in multidrug-resistant bacteria panel, modified microdilution; assay type: cell-based; details: overnight, 37° C.
Experimental: (§4) Minimum inhibitory concentrations of the prepared peptoids for multidrug-resistant bacteria were measured using a modified microdilution method in Difco Mueller Hinton medium, and tests were done on a panel of bacterial pathogens which have resistance and tolerance against common antibiotics.
(§5) Briefly, a peptoid concentrate, which is 10-fold more concentrated than a final concentration, was serially diluted with a medium containing 0.2% bovine serum albumin and 0.01% acetic acid. 10 μL of the 10-fold concentrated peptoid concentrate and 90 μL of Muller Hinton medium were added to each well of a 96-well polypropylene microtitre plate. Bacteria were added to the plate so that a final concentration thereof was 2×10^5 CFU/mL, and then incubated overnight at a temperature of 37° C. The minimum inhibitory concentration was defined as a concentration at which no bacterial growth is observed.

P. aeruginosa (198B MDR) = assay: as above; assay type: cell-based; details: overnight, 37° C.
Experimental: as §4, §5

[1] = system: S. epidermidis (ET-024 MRSA); assay: as above; assay type: cell-based; details: overnight, 37° C.
Experimental: as §4, §5

[2] = Metabolic stability in human liver S9 fraction, HPLC; assay type: in vitro ADME; details: human
Experimental: In order to identify metabolic stability of the peptoids synthesized in Preparation Example 1, such peptoids were subjected to enzymatic reaction using S9 fraction which is a mixture of human liver tissue-extracted metabolic enzymes. Thereafter, for the reaction products, metabolites were quantitated using HPLC.
Specifically, Peptoid NOS. 1 and 4, and Pexiganan as a peptide control (40 μL each, 100 μM) were treated with […], 3.3 mM MgCl2, and 1.3 mM NADPH buffer (306 μL, pH=7.4), to prepare respective samples. The respective samples were treated with S9 fraction (2 μL, 0.1 mg/mL) and then incubated at a temperature of 37° C. When 0, 1, 4, and 24 hours had elapsed after treatment with the S9 fraction, 40 μL of each sample was taken out, and acetonitrile containing the same amount of 0.1% trifluoroacetic acid was used to stop activity of enzymes contained in the S9 fraction. Thereafter, proteins precipitated with acetonitrile were centrifuged at a condition of 1,000×g for 10 minutes at a temperature of 4° C. Then, supernatant was analyzed by HPLC to identify an amount of the remaining peptoid which had not been degraded by the enzymes in the S9 fraction.

[3] = system: S. aureus strain KCTC1621; assay type: cell-based
Experimental: (§6) In order to measure antimicrobial activity of the peptoids, Gram-positive S. aureus strain KCTC1621, or Gram-negative E. coli strain ATCC25922 was treated with the peptoids prepared in Preparation Example 1, and minimum inhibitory concentrations were measured. Peptoid NOS. 1 and 2 are already known peptoids and were used for the purpose of making a comparison with novel peptoids in terms of antimicrobial activity.
(§7) Specifically, S. aureus strain KCTC1621 or E. coli strain ATCC25922 was inoculated into Mueller Hinton Broth (MHB2) liquid medium on which cations were adjusted, cultured at a temperature of 37° C. for 18 hours, and then subcultured for 4 hours. Thereafter, the strains were diluted with MHB2 liquid medium containing 0.2% bovine serum albumin and 0.01% acetic acid so that each bacterial number was 2×10^5 colony-forming units (CFU) per 1 mL, and dispensed into 96-well microtiter plates at 100 μL each. A peptoid stock which is 40-fold more concentrated than a concentration to be tested was added to each well at 2.5 μL or lower so that the peptoid stock was 2-fold serially diluted using sterile water. Thereafter, the plates were incubated at a temperature of 37° C. for 18 hours.
(§8) Thereafter, absorbance was measured at a wavelength of 600 nm using a microplate reader (Bio-Rad). The lowest peptoid concentration that completely suppresses growth of microorganisms was measured by a minimum inhibitory concentration (MIC) and a minimum bactericidal concentration (MBC), and the measurement results are shown in Table 5 below. Each of the MIC values was calculated as an average value of numerical values obtained through three independent experiments.

E. coli strain ATCC25922 = assay type: cell-based
Experimental: as §6, §7, §8

SMILES | MIC E. coli (E. coli strain DH5α) [µM] | CC50 at 24 h (in vitro) [µM] | MIC B. subtilis (B. subtilis) [µM] | HD10 (red blood cells) | HD50 (red blood cells) | Selectivity [HD10/MIC (E. coli)] (E. coli) | minimum inhibitory concentration P. aeruginosa (PA01) (P. aeruginosa (PA01)) | minimum inhibitory concentration P. aeruginosa (198B MDR) (P. aeruginosa (198B MDR)) | minimum inhibitory concentration S. epidermidis (ET-024 MRSA) [1] | remaining amount after S9 fraction treatment ([2]; s9, 24 h) [%] | remaining at 24 h, 11.5 μM ([2]; s9, pH 7.4) [%] | MBC S. aureus ([3]; KCTC1621) [µM] | MIC S. aureus ([3]; KCTC1621, 18 h) [µM] | MBC E. coli (E. coli strain ATCC25922; ATCC25922) [µM] | MIC E. coli (E. coli strain ATCC25922; ATCC25922, 18 h) [µM]
C[C@@H](c1ccccc1)N(CC(N)=O)C(=O)CN(C(=O)CN(CCCCN)C(=O)CN(C(=O)CN(C(=O)CN(CCCCN)C(=O)CN(C(=O)CN(C(=O)CNCCCCN)[C@@H](C)c1ccccc1)[C@@H](C)c1ccccc1)[C@@H](C)c1ccccc1)[C@@H](C)c1ccccc1)[C@@H](C)c1ccccc1 [compound 18] (H-[Nlys][Nspe][Nspe][Nlys][Nspe][Nspe][Nlys][Nspe][Nspe]-NH2) | 3.1 (≈ 4.24 µg/mL) | 40 | 1.6 (≈ 2.19 µg/mL) | – | – | – | – | – | – | – | – | – | – | – | –
C[C@@H](c1ccccc1)N(CC(=O)N(CCCCN)CC(=O)N(CC(=O)N(CC(=O)N(CCCCN)CC(=O)N(CC(=O)N(CC(=O)N(CCCCN)CC(=O)N(CC(=O)N(CC(N)=O)Cc1ccccc1)Cc1ccccc1)Cc1ccccc1)Cc1ccccc1)Cc1ccccc1)Cc1ccccc1)C(=O)CN(Cc1ccccc1)C(=O)CNCCCCN [compound 4] (H-[Nlys][Nphe][Nspe][Nlys][Nphe][Nphe][Nlys][Nphe][Nphe][Nlys][Nphe][Nphe]-NH2) | – | – | – | 89.6 | > 200 | 7.1 | 6.3 | 6.3 | <0.8 to 0.8 | ≥ 60 | 74 | 3.1 (≈ 5.34 µg/mL) | 3.1 (≈ 5.34 µg/mL) | 25 (≈ 43 µg/mL) | 12.5 (≈ 21.5 µg/mL)
Cc1ccc([C@H](C)N(CC(N)=O)C(=O)CN(C(=O)CN(CCCCN)C(=O)CN(C(=O)CN(C(=O)CN(CCCCN)C(=O)CN(C(=O)CN(C(=O)CN(CCCCN)C(=O)CN(C(=O)CN(C(=O)CNCCCCN)[C@@H](C)c2ccc(C)cc2)[C@@H](C)c2ccc(C)cc2)[C@@H](C)c2ccc(C)cc2)[C@@H](C)c2ccc(C)cc2)[C@@H](C)c2ccc(C)cc2)[C@@H](C)c2ccc(C)cc2)[C@@H](C)c2ccc(C)cc2)cc1 [compound 20] | >6.1 | 8 | 0.8 (≈ 1.55 µg/mL) | < 6.25 | 8.3 | – | – | – | – | – | – | – | – | – | –
C[C@@H](c1ccc(Cl)cc1)N(CC(N)=O)C(=O)CN(C(=O)CN(CCCCN)C(=O)CN(C(=O)CN(C(=O)CN(CCCCN)C(=O)CN(C(=O)CN(C(=O)CN(CCCCN)C(=O)CN(C(=O)CN(C(=O)CNCCCCN)[C@@H](C)c1ccc(Cl)cc1)[C@@H](C)c1ccc(Cl)cc1)[C@@H](C)c1ccc(Cl)cc1)[C@@H](C)c1ccc(Cl)cc1)[C@@H](C)c1ccc(Cl)cc1)[C@@H](C)c1ccc(Cl)cc1)[C@@H](C)c1ccc(Cl)cc1 [compound 19] | >6.1 | 3 | 6.1 (≈ 12.8 µg/mL) | < 6.25 | 10.4 | – | – | – | – | – | – | – | – | – | –
